Entries after “also recorded” stand apart in the source; their conditions may differ.

The test system of experiment [1] is p21-35 (SEQ ID NO:3)-specific CD4+ T cell clone. The experiment is described as follows: Proliferation of Der p2 p21-35-specific CD4+ T cell clone with peptide-loaded antigen-presenting cells (3H-thymidine incorporation). It counts as cell-based, BALB/c mice. The settings on record: peptide 0.1 μM loaded on T cell-depleted mitomycin C-treated splenocytes; compared with p21-35 wildtype sequence (SEQ ID NO:3); 48 h + 18 h 3H-thymidine. Background: Dividing cells build labelled thymidine or BrdU into new DNA.

In experiment [2] the test system is B cells expressing the BO2C11 BCR. The experiment is described as follows: FACS for BO2C11 BCR on circulating, splenic and bone marrow B cells of immunized mice. The class given is in vivo. How it is done:
A mouse strain was created which expresses the BO2C11 molecule as a B cell receptor. […] Mice were then bled and tested for the presence of antibodies recognizing the peptide of SEQ ID NO:10 and the BO2C11 antibody, as assess by direct binding ELISA. […] Furthermore, the presence of the BO2C11 BCR on circulating, splenic and bone marrow B cells was evaluated by FACS using an anti-human Fc-gamma antibody.

The subject of a further experiment is BO2C11 antibody. As to the kind of experiment: Direct binding ELISA of antibodies in blood of immunized BO2C11 BCR mice. It counts as in vivo. Particulars: mice immunized with 50 μg peptide on alum on 4 occasions at 10-day intervals. An excerpt:
(§1) A mouse strain was created which expresses the BO2C11 molecule as a B cell receptor. […] Mice were then bled and tested for the presence of antibodies recognizing the peptide of SEQ ID NO:10 and the BO2C11 antibody, as assess by direct binding ELISA.
In general terms: An ELISA detects its analyte on a solid surface through an enzyme-linked reagent.

Test in experiment [3]: as above
It counts as in vivo. Particulars: mice immunized with 50 μg peptide on alum on 4 occasions at 10-day intervals.
Description: as §1

The test system of a further experiment is CD4+ T cells. The experiment is described as follows: Proliferation of CD4+ T cells stimulated with ALK peptide-loaded dendritic cells (tritiated thymidine incorporation). It counts as cell-based, C57BL/6 mice. The settings on record: four cycles of stimulation with 20 μg peptide; restimulation with 1 μM or 10 μM peptide of SEQ ID NO:14; compared with stimulation by SEQ ID NO:14.

A further experiment deals with G121 TCR. The experiment is described as follows: FACS detection of serum antibodies to G121 TCR in immunized mice. It counts as in vivo, BALB/c mice. The settings on record: G121 cells incubated with serum dilution, then FITC-labeled anti-mouse Fcgamma antibody.
The next experiment relates to G121 CD4+ T cell clone. The experiment is described as follows: FACS detection of CFSE-labeled G121 CD4+ T cell clone in immunized mice. The class given is in vivo, BALB/c mice. The settings on record: one day after i.v. injection of 200,000 cells per mouse in immunized mice.
The test system of experiment [4] is macrophages presenting Ag85b derived epitopes. It counts as cell-based, C57BL/6 mice.
The subject of experiment [5] is NPM-ALK tumor cells (R80 NPM-ALK cells, H-2b-restricted). As to the kind of experiment: Growth of NPM-ALK tumor in mice preimmunized with peptide on alum. It counts as in vivo, C57BL/6 mice. The settings on record: 50 μg peptide on alum, 4 times at 10-day intervals, before s.c. inoculation of 2×10^6 tumor cells; difference at day 20 p<0.008 (Mann-Whitney U test).
Experiment [6] relates to ALK-specific CD4+ T cells. As to the kind of experiment: Activation of ALK-specific CD4+ T cells.

Consider “AHGSEPCIIHRGKPF (Der p2 amino acids 21-35 with mutation c21A) [SEQ ID NO:4, p21-35 peptide with cysteine in P(-4) substituted by alanine]”, for which the “reduction of the proliferative response of the specific T cell clone” value in [1] stood at 70%. In the case of “CAVY YCAVPDPDA FDI (CAVYYCAVPDPDAFDI; amino acids 111-125 of VH of human anti-factor VIII antibody BO2C11 preceded by cyteine) [SEQ ID NO:11]”, the “B cells expressing the transgenic BCR in circulation, spleen or bone marrow (FACS, anti-human Fc-gamma antibody)” value in [2] is given as “no B cells expressing the transgenic BCR”. Also, the “antibodies to the BO2C11 antibody (direct binding ELISA)” value in the experiment with BO2C11 antibody is reported as “High concentrations of antibodies”. In [3], the “antibodies to the peptide of SEQ ID 10 (direct binding ELISA)” value is “High concentrations of antibodies”. Take “CGG WTGPGAGPR (CGGWTGPGAGPR; amino acids 1544-1555 of ALK protein preceded by cysteine) [SEQ ID NO:15, ALK peptide with a single cysteine added at position 1544]”: in the experiment on CD4+ T cells, the “proliferation rate of CD4+ T cells (incorporation of tritiated thymidine)” value is “significantly increased”. As for “CQTA VYFCASSER TGG (CQTAVYFCASSERTGG; amino acids 103-117 of VH of anti-Der p2 CD4+ T-cell clone G121 preceded by cysteine) [SEQ ID NO:13]”, in the experiment with G121 TCR, the “antibodies to G121 TCR in serum of immunized mice (FACS)” value was “contains antibodies to G121 TCR”. Also, the “residual CFSE-labeled G121 cells in peripheral blood or spleen (FACS)” value in the experiment with G121 CD4+ T cell clone was “no residual G121 cells”. On to CSWE YWGAQLNAM [SEQ ID NO:7], for which the “macrophage lysis (51Cr release)” value in experiment [4] is “significant degree of macrophage lysis”. For the substance “YCTQDPDVINTA (ALK-epitope) [SEQ ID NO:5]”, in [5], the “tumor growth in preimmunized mice versus control group not preimmunized” value was “very much reduced”. For the same substance, in experiment [6], the “activation of ALK-specific (class II-restricted) CD4+ T cells” value is reported as “boost the activation; also recorded: increased activation properties”. On to “YWGAQLNAM [SEQ ID NO:6, reference compound]”, for which, in experiment [4], the “macrophage lysis (51Cr release)” value is listed as “not”.

The record behind these values is patent US10899795B2, “Modified epitopes for boosting CD4+ T-cell responses” (Katholieke Universiteit Leuven, priority 2012, dated 2021).
